Data: patent US10647713B2 (Nimbus Lakshmi, Inc., priority 2016, dated 2020)

Target: human TYK2 (JH2domain-pseudokinase) (Homo sapiens (Human), UniProt P29597)
Test: TYK2 JH2 Domain Binding Assay (KINOMEscan, DiscoveRx)
Settings: 11-point dilution, duplicate
Protocol: Binding constants for compounds of the present invention against the JH2 domain were determined by the following protocol for a KINOMEscan® assay (DiscoveRx). A fusion protein of a partial length construct of human TYK2 (JH2domain-pseudokinase) (amino acids G556 to D888 based on reference sequence NP_003322.3) and the DNA binding domain of NFkB was expressed in transiently transfected HEK293 cells. From these HEK 293 cells, extracts were prepared in M-PER extraction buffer (Pierce) in the presence of Protease Inhibitor Cocktail Complete (Roche) and Phosphatase Inhibitor Cocktail Set II (Merck) per manufacturers' instructions. The TYK2 (JH2domain-pseudokinase) fusion protein was labeled with a chimeric double-stranded DNA tag containing the NFkB binding site (5′-GGGAATTCCC-3′) fused to an amplicon for qPCR readout, which was added directly to the expression extract (the final concentration of DNA-tag in the binding reaction is 0.1 nM).
Streptavidin-coated magnetic beads (Dynal M280) were treated with a biotinylated small molecule ligand for 30 minutes at room temperature to generate affinity resins the binding assays. The liganded beads were blocked with excess biotin and washed with blocking buffer (SeaBlock (Pierce), 1% BSA, 0.05% Tween 20, 1 mM DTT) to remove unbound ligand and to reduce nonspecific binding.
The binding reaction was assembled by combining 16 μl of DNA-tagged kinase extract, 3.8 μl liganded affinity beads, and 0.18 μl test compound (PBS/0.05% Tween 20/10 mM DTT/0.1% BSA/2 μg/ml sonicated salmon sperm DNA)]. Extracts were used directly in binding assays without any enzyme purification steps at a ≥10,000-fold overall stock dilution (final DNA-tagged enzyme concentration <0.1 nM). Extracts were loaded with DNA-tag and diluted into the binding reaction in a two step process. First extracts were diluted 1:100 in 1× binding buffer (PBS/0.05% Tween 20/10 mM DTT/0.1% BSA/2 μg/ml sonicated salmon sperm DNA) containing 10 nM DNA-tag. This dilution was allowed to equilibrate at room temperature for 15 minutes and then subsequently diluted 1:100 in 1× binding buffer. Test compounds were prepared as 111× stocks in 100% DMSO. Kds were determined using an 11-point 3-fold compound dilution series with three DMSO control points. All compounds for Kd measurements are distributed by acoustic transfer (non-contact dispensing) in 100% DMSO. The compounds were then diluted directly into the assays such that the final concentration of DMSO was 0.9%. All reactions performed in polypropylene 384-well plates. Each was a final volume of 0.02 mL. Assays were incubated with shaking for 1 hour at room temperature. Then the beads were pelleted and washed with wash buffer (1×PBS, 0.05% Tween 20) to remove displaced kinase and test compound. The washed based were re-suspended in elution buffer (1×PBS, 0.05% Tween 20, 0.5 μM non-biotinylated affinity ligand) and incubated at room temperature with shaking for 30 minutes. The kinase concentration in the eluates was measured by qPCR. qPCR reactions were assembled by adding 2.5 μL of kinase eluate to 7.5 μL of qPCR master mix containing 0.15 μM amplicon primers and 0.15 μM amplicon probe. The qPCR protocol consisted of a 10 minute hot start at 95° C., followed by 35 cycles of 95° C. for 15 seconds, 60° C. for 1 minute.
Test compounds were prepared as 111× stocks in 100% DMSO. Kds were determined using an 11-point 3-fold compound dilution series with three DMSO control points. All compounds for Kd measurements are distributed by acoustic transfer (non-contact dispensing) in 100% DMSO. The compounds were then diluted directly into the assays such that the final concentration of DMSO was 0.9%. The Kds were determined using a compound top concentration of 30,000 nM. Kd measurements were performed in duplicate.
Binding constants (Kds) were calculated with a standard dose-response curve using the Hill equation: […]
The Hill Slope was set to −1. […]

Chain of human TYK2 (JH2domain-pseudokinase) (P29597 556-888): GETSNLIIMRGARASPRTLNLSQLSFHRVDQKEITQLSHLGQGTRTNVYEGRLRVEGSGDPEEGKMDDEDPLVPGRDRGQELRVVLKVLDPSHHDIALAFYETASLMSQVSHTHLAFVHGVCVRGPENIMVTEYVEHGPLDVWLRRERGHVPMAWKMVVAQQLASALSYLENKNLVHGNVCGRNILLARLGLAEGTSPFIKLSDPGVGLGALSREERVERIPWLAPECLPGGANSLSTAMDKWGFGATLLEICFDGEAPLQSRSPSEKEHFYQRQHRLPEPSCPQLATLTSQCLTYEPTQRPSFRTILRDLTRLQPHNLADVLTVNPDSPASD

Row | SMILES | Kd
1 | CN(c1cc(-c2cnn(C)c2)ccc1Nc1cc(NC(=O)[C@@H]2C[C@@H]2F)nc2[nH]c(C(F)F)nc12)S(C)(=O)=O (stereo in doubt) [Compound I-207] | 0.1 to 0.5 nM
2 | COc1c(Nc2cc(NC(=O)[C@@H]3C[C@@H]3F)nc3[nH]c(C(F)F)nc23)cccc1-c1ncn(C)n1 (stereo in doubt) [I-213, N-(2-(difluoromethyl)-7-((2-methoxy-3-(1-methyl-1H-1,2,4-triazol-3-yl)phenyl)amino)-3H-imidazo[4,5-b]pyridin-5-yl)-2-fluorocyclopropane-1-carboxamide] | 0.1 to 0.5 nM
3 | CN(c1cc(-c2cnn(C)c2)ccc1Nc1cc(NC(=O)[C@@H]2C[C@@H]2F)nc2[nH]c(C(F)F)nc12)S(C)(=O)=O (stereo in doubt) [I-235, (1S,2S)—N-(2-(difluoromethyl)-7-((4-(1-methyl-1H-pyrazol-4-yl)-2-(N-methylmethylsulfonamido)phenyl)amino)-3H-imidazo[4,5-b]pyridin-5-yl)-2-fluorocyclopropane-1-carboxamide] | < 0.1 nM
4 | Cc1nc2c(Nc3ccc(C4CCCOC4)cc3S(C)(=O)=O)cc(NC(=O)C3CC3)nc2[nH]1 (stereo in doubt) [I-254, (R)—N-(2-methyl-7-((2-(methylsulfonyl)-4-(tetrahydro-2H-pyran-3-yl)phenyl)amino)-3H-imidazo[4,5-b]pyridin-5-yl)cyclopropanecarboxamide] | 0.5 to 1 nM
5 | Cc1nc2c(Nc3ccc([C@@H]4CCCCO4)cc3S(C)(=O)=O)cc(NC(=O)[C@@H]3CC3(F)F)nc2[nH]1 (stereo in doubt) [I-324, 2,2-difluoro-N-(2-methyl-7-((2-(methylsulfonyl)-4-((R)-tetrahydro-2H-pyran-2-yl)phenyl)amino)-3H-imidazo[4,5-b]pyridin-5-yl)cyclopropane-1-carboxamide] | 1 to 10 nM
6 | COc1c(Nc2cc(NC(=O)C3C[C@@H]3F)nc3[nH]c(C)nc23)cccc1-c1ncn(C)n1 (stereo in doubt) [I-368, 2-fluoro-N-(7-((2-methoxy-3-(1-methyl-1H-1,2,4-triazol-3-yl)phenyl)amino)-2-methyl-3H-imidazo[4,5-b]pyridin-5-yl)cyclopropane-1-carboxamide] | 0.5 to 1 nM
7 | COc1c(Nc2cc(NC(=O)C3C[C@@H]3F)nc3[nH]c(C(F)F)nc23)cccc1-c1ncn(C)n1 (stereo in doubt) [I-374, N-(2-(difluoromethyl)-7-((2-methoxy-3-(1-methyl-1H-1,2,4-triazol-3-yl)phenyl)amino)-3H-imidazo[4,5-b]pyridin-5-yl)-2-fluorocyclopropane-1-carboxamide] | 1 to 10 nM
8 | CN=S(C)(=O)c1ccccc1Nc1cc(NC(=O)C2CC2)nc2[nH]c(C)nc12 (stereo in doubt) [I-548, (S)—N-(7-((2-(N,S-dimethylsulfonimidoyl)phenyl)amino)-2-methyl-3H-imidazo[4,5-b]pyridin-5-yl)cyclopropanecarboxamide] | 0.1 to 0.5 nM
9 | Cc1nc2c(Nc3ccc(C4CCCCO4)cc3S(C)(=O)=O)cc(Nc3cc4n(n3)CCOC4)nc2[nH]1 (stereo in doubt) [I-586, (R)—N5-(6,7-dihydro-4H-pyrazolo[5,1-c][1,4]oxazin-2-yl)-2-methyl-N7-(2-(methylsulfonyl)-4-(tetrahydro-2H-pyran-2-yl)phenyl)-3H-imidazo[4,5-b]pyridine-5,7-diamine] | 0.1 to 0.5 nM
10 | CS(=O)(=O)c1cc(C2COCCO2)ccc1Nc1cc(NC(=O)C2CC2)nc2[nH]c(C(F)F)nc12 (stereo in doubt) [I-613, (R)—N-(7-((4-(1,4-dioxan-2-yl)-2-(methylsulfonyl)phenyl)amino)-2-(difluoromethyl)-3H-imidazo[4,5-b]pyridin-5-yl)cyclopropanecarboxamide] | 0.1 to 0.5 nM
11 | CS(=O)(=O)c1cc(C2COCCO2)ccc1Nc1cc(NC(=O)C2CC2)nc2[nH]c(C(F)F)nc12 (stereo in doubt) [I-614, (S)—N-(7-((4-(1,4-dioxan-2-yl)-2-(methylsulfonyl)phenyl)amino)-2-(difluoromethyl)-3H-imidazo[4,5-b]pyridin-5-yl)cyclopropanecarboxamide] | 0.1 to 0.5 nM
12 | COc1c(Nc2cc(NC(=O)C3CC3)nc3[nH]cnc23)cccc1-c1ncn(C)n1 [I-1, N-(7-((2-methoxy-3-(1-methyl-1H-1,2,4-triazol-3-yl)phenyl)amino)-3H-imidazo[4,5-b]pyridin-5-yl)cyclopropanecarboxamide] | 0.1 to 0.5 nM
13 | COc1c(Nc2cc(Nc3cc(C)c(F)cn3)nc3[nH]cnc23)cccc1-c1ncn(C)n1 [I-2, N5-(5-fluoro-4-methylpyridin-2-yl)-N7-(2-methoxy-3-(1-methyl-1H-1,2,4-triazol-3-yl)phenyl)-3H-imidazo[4,5-b]pyridine-5,7-diamine] | 0.5 to 1 nM
14 | COc1c(Nc2cc(Nc3cc(C)nc(C)n3)nc3[nH]cnc23)cccc1-c1ncn(C)n1 [I-3, N5-(2,6-dimethylpyrimidin-4-yl)-N7-(2-methoxy-3-(1-methyl-1H-1,2,4-triazol-3-yl)phenyl)-3H-imidazo[4,5-b]pyridine-5,7-diamine] | 0.1 to 0.5 nM
15 | COc1c(Nc2cc(Nc3ccc(C)nn3)nc3[nH]cnc23)cccc1-c1ncn(C)n1 [I-4, N7-(2-methoxy-3-(1-methyl-1H-1,2,4-triazol-3-yl)phenyl)-N5-(6-methylpyridazin-3-yl)-3H-imidazo[4,5-b]pyridine-5,7-diamine] | 0.1 to 0.5 nM
16 | COc1c(Nc2cc(Nc3cc(CO)ccn3)nc3[nH]cnc23)cccc1-c1ncn(C)n1 [I-5, (2-((7-((2-methoxy-3-(1-methyl-1H-1,2,4-triazol-3-yl)phenyl)amino)-3H-imidazo[4,5-b]pyridin-5-yl)amino)pyridin-4-yl)MeOH] | 0.5 to 1 nM
17 | COc1c(Nc2cc(Nc3ccc(N4CCCCC4)cn3)nc3[nH]cnc23)cccc1-c1ncn(C)n1 [I-6, N7-(2-methoxy-3-(1-methyl-1H-1,2,4-triazol-3-yl)phenyl)-N5-(5-(piperidin-1-yl)pyridin-2-yl)-3H-imidazo[4,5-b]pyridine-5,7-diamine] | 0.5 to 1 nM
18 | COc1c(Nc2cc(Nc3ccc(N4CCOCC4)cn3)nc3[nH]cnc23)cccc1-c1ncn(C)n1 [I-7, N7-(2-methoxy-3-(1-methyl-1H-1,2,4-triazol-3-yl)phenyl)-N5-(5-morpholinopyridin-2-yl)-3H-imidazo[4,5-b]pyridine-5,7-diamine] | 0.1 to 0.5 nM
19 | COc1c(Nc2cc(Nc3ccn(C)n3)nc3[nH]cnc23)cccc1-c1ncn(C)n1 [I-8, N7-(2-methoxy-3-(1-methyl-1H-1,2,4-triazol-3-yl)phenyl)-N5-(1-methyl-1H-pyrazol-3-yl)-3H-imidazo[4,5-b]pyridine-5,7-diamine] | 1 to 10 nM
20 | COc1c(Nc2cc(NC(=O)C3CC3)nc3[nH]c(C4CC4)nc23)cccc1-c1ncn(C)n1 [I-9, N-(2-cyclopropyl-7-((2-methoxy-3-(1-methyl-1H-1,2,4-triazol-3-yl)phenyl)amino)-3H-imidazo[4,5-b]pyridin-5-yl)cyclopropanecarboxamide] | > 10 nM
21 | COc1c(Nc2cc(NC(=O)C3CC3)nc3[nH]c(CO)nc23)cccc1-c1ncn(C)n1 [I-10, N-(2-(hydroxymethyl)-7-((2-methoxy-3-(1-methyl-1H-1,2,4-triazol-3-yl)phenyl)amino)-3H-imidazo[4,5-b]pyridin-5-yl)cyclopropanecarboxamide] | 1 to 10 nM
22 | COc1nc2c(Nc3cccc(-c4ncn(C)n4)c3OC)cc(NC(=O)C3CC3)nc2[nH]1 [I-11] | 1 to 10 nM
23 | COc1c(Nc2cc(NC(=O)C3CC3)nc3[nH]c(C(F)F)nc23)cccc1-c1ncn(C)n1 [I-13, N-(2-(difluoromethyl)-7-((2-methoxy-3-(1-methyl-1H-1,2,4-triazol-3-yl)phenyl)amino)-3H-imidazo[4,5-b]pyridin-5-yl)cyclopropanecarboxamide] | 0.1 to 0.5 nM
